The target in the test is Substance-P receptor (Rattus norvegicus, UniProt P14600). Kind of test: Displacement of [125I]Lys3-substance P from rat NK1 receptor expressed in CHO cells. It counts as cell-based. (In general: Displacement assays read how much labelled ligand stays bound in the presence of the test substance.)

Structures are written as SMILES. Residues, ends and D or L forms follow the SMILES beside them.

Data on five compounds can be found in ChEMBL document CHEMBL1138366, “Conformational comparisons of a series of tachykinin peptide analogs” (J Med Chem, 2007).

Sequence of Substance-P receptor (P14600 whole entry): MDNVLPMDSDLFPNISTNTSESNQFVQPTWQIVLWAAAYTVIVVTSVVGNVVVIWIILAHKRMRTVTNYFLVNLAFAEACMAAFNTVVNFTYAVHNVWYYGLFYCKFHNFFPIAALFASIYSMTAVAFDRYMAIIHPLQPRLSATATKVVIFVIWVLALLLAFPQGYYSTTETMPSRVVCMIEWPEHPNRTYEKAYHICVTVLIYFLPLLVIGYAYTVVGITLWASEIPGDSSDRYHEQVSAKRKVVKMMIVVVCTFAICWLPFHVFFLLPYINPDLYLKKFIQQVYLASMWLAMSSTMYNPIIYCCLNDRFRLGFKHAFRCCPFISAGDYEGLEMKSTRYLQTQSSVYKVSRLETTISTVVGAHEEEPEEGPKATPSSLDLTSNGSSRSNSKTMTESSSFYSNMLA

Usually IC50 stands for the concentration that inhibits the measured activity by half. As for `CSCC[C@H](NC(=O)[C@H](CC(C)C)NC(=O)CNC(=O)[C@H](Cc1ccccc1)NC(=O)[C@H](Cc1ccccc1)NC(=O)[C@H](CO)NC(=O)[C@H](CCC(N)=O)NC(=O)[C@@H]1CCCN1C(=O)[C@H](CCCCN)NC(=O)[C@@H]1CCCN1C(=O)[C@@H](N)CCCN=C(N)N)C(N)=O`, the IC50 (read-out: IC50) worked out at 4.1 nM. The same measure, in the same setting: under `CSCC[C@H](NC(=O)[C@H](CC(C)C)NC(=O)CNC(=O)[C@H](Cc1ccccc1)NC(=O)[C@H](Cc1ccccc1)NC(=O)[C@H](CCC(N)=O)NC(=O)[C@H](C)NC(=O)[C@@H]1CCCN1C(=O)[C@H](CCCCN)NC(=O)[C@@H]1CCCN1C(=O)[C@@H](N)CCCNC(=N)N)C(N)=O` stands 0.7 nM. As for `CC[C@H](C)[C@H](NC(=O)[C@H](Cc1ccccc1)NC(=O)[C@H](CO)NC(=O)[C@H](C)NC(=O)[C@@H]1CCCN1C(=O)[C@H](CC(N)=O)NC(=O)[C@@H](N)Cc1cnc[nH]1)C(=O)NCC(=O)N[C@@H](CC(C)C)C(=O)N[C@@H](CCSC)C(N)=O` (H-HNPASFIGLM-NH2), under “read-out: Log IC50 (converted)”, the IC50 is 32.4 nM. As for `CSCC[C@H](NC(=O)[C@H](CC(C)C)NC(=O)CNC(=O)[C@H](Cc1ccccc1)NC(=O)[C@H](Cc1ccccc1)NC(=O)[C@H](CCC(N)=O)NC(=O)[C@H](CCC(N)=O)NC(=O)[C@@H]1CCCN1C(=O)[C@H](CCCCN)NC(=O)[C@@H]1CCCN1)C(N)=O` (H-PKPQQFFGLM-NH2), for the setting “read-out: IC50”, the IC50 amounted to 4.6 nM. Still for that read-out and setting: under `CSCC[C@H](NC(=O)[C@H](CC(C)C)NC(=O)CNC(=O)[C@H](Cc1ccccc1)NC(=O)[C@H](Cc1ccccc1)NC(=O)[C@H](CO)NC(=O)[C@H](C)NC(=O)[C@@H]1CCCN1C(=O)[C@H](CCCCN)NC(=O)[C@@H]1CCCN1C(=O)[C@@H](N)CCCN=C(N)N)C(N)=O` (H-RPKPASFFGLM-NH2) stands 21 nM.
